Measurements as given in patent publication US8071777B2, “Compounds derived from artesunate, preparation process, pharmaceutical composition and use of the respective medicine” (Fundação Oswaldo Cruz - FIOCRUZ, priority 2004, dated 2011).
≈ marks a conversion by molar mass, not a printed value. Where “and” joins values, the source holds several entries; their conditions need not be identical. Equal entries are not always repeated. Where two headings read alike, the source gives them in different places.

Tests used:
Plasmodium berghei = assay: Antimalarial activity in vivo in mice infected with Plasmodium berghei NK 65, oral treatment for 4 days; conditions: for Average parasitaemia (%) ± SD on day 5 / Average parasitaemia (%) ± SD on day 7: 12 mg/kg via oral for 4 days in sequence, mice infected by Plasmodium berghei; for Average parasitaemia (%) ± SD on day 5: day 5 of infection; for Average parasitaemia (%) ± SD on day 7: day 7 of infection; for Cumulative mortality on day 10 of infection / Cumulative mortality on day 19 of infection / Cumulative mortality on day 23 of infection / Cumulative mortality on day 35 of infection / Cumulative mortality on day 48 of infection: 5 mice in each group; for % Inhibition of parasitaemia on day 5: day 5, in relation to the group control not treated; for % Inhibition of parasitaemia on day 7: day 7, in relation to the group control not treated; for Suppression of the acute parasitaemia of treated animals: evaluations on the 5th and 7th day after the infection; for Parasitaemia at late follow-up: negative or recrudescence: new blood samples days 30 to 48
Method: To evaluate the antimalarial activity the following tests were carried out in different experiments in vivo using groups of Swiss female albino mice, weighing between 18 and 22 g. These mice were innoculated with 100,000 red cells infected with strain NK 65 of Plasmodium berghei (cause of malaria in rodents) according to the scheme previously proposed (Peters et al., Annals of Tropical Medicine and Parasitology, 1993, 87, 547). After inoculating the parasite via intraperitoneal, the animals were divided at random into groups of five. The treatment of the mice were initiated the day after the inoculation, for 4 days in sequence, applying samples “A”, “B” e “C” administered via oral. The different groups of mice, represented by groups treated and not treated (group control) were kept in the same conditions, in polyacetylene cages, water and ration was offered ad libitum. A group was treated with chloroquine, an antimalarial of reference. The development of the infection was verified in all groups through blood samples collected for parasitaemia on the 5th and 7th day after the infection, and the parasitaemia was measured based on double blind tests, in codified slides, in order to minimize occasional bias.
(§1) Not only in vivo but also in vitro, the activity of drugs was evaluated in relation to the group control without any drugs.

P. falciparum (W2) = assay: Antimalarial activity in vitro against P. falciparum cultivated in red cells, 72 hours; type: cell-based; conditions: for IC50: Plasmodium falciparum
Method: The tests in vitro to evaluate the antimalarial activity were carried out with P. falciparum cultivated in red cells in 10% of human serum, in slabs of 96 wells, using Rieckman et al's traditional method, modified by Carvalho et al. Braz J. Med. Biol. Research, 1991. The parasites were incubated for 72 hours in culture medium having samples “A”, “B” and “C” in different dilutions in ideal atmospherical conditions at 37° C.; drugs and the culture medium was changed every 24 hours. After this period, blood samples were collected for evaluation of the activity of each compound. As to control wells with complete culture medium were maintained, but with no addition of drugs, and wells in which chloroquine was present in different tested concentrations in triplicate.
as §1

[1] = 12 mg/kg via oral for 4 days, day 48
[2] = P. falciparum (W2) in vitro, Experiment 1, approximated
[3] = P. falciparum (W2) in vitro, Experiment 2, approximated
[4] = W2, read-out: Inhibiting concentration (IC) 50%, Experiment 1
[5] = W2, read-out: Inhibiting concentration (IC) 50%, Experiment 2

SMILES | Average parasitaemia (%) ± SD on day 5 (Plasmodium berghei) [%] | Average parasitaemia (%) ± SD on day 7 (Plasmodium berghei) [%] | Cumulative mortality on day 10 of infection (Plasmodium berghei; 12 mg/kg via oral for 4 days) | Cumulative mortality on day 19 of infection (Plasmodium berghei; 12 mg/kg via oral for 4 days) | Cumulative mortality on day 23 of infection (Plasmodium berghei; 12 mg/kg via oral for 4 days) | Cumulative mortality on day 35 of infection (Plasmodium berghei; 12 mg/kg via oral for 4 days) | Cumulative mortality on day 48 of infection (Plasmodium berghei; [1]) | % Inhibition of parasitaemia on day 5 (Plasmodium berghei; 12 mg/kg via oral for 4 days) | % Inhibition of parasitaemia on day 7 (Plasmodium berghei; 12 mg/kg via oral for 4 days) | Suppression of the acute parasitaemia of treated animals (Plasmodium berghei; 12 mg/kg via oral) [%] | Parasitaemia at late follow-up: negative or recrudescence (Plasmodium berghei; 12 mg/kg via oral) | Inhibiting concentration (IC) 40%, Experiment 1 (P. falciparum (W2); [2]) [ng/mL] | Inhibiting concentration (IC) 80%, Experiment 1 (P. falciparum (W2); [2]) [ng/mL] | Inhibiting concentration (IC) 95%-100%, Experiment 1 (P. falciparum (W2); [2]) | Inhibiting concentration (IC) 40%, Experiment 2 (P. falciparum (W2); [3]) [ng/mL] | Inhibiting concentration (IC) 80%, Experiment 2 (P. falciparum (W2); [3]) | Inhibiting concentration (IC) 95%-100%, Experiment 2 (P. falciparum (W2); [3]) | IC50 (P. falciparum (W2); [4]) [ng/mL] | IC50 (P. falciparum (W2); [5]) [ng/mL] | other results
OC(c1cc(C(F)(F)F)nc2c(C(F)(F)F)cccc12)C1CCCCN1 (stereo not drawn) [C, mefloquine] | 0 | 0 | 0 | 0 | 0 | 0 | 0 | (100%) | (100%) | 100 | remained negative | 0.93 | 12.9 | ≧50 ng/ml | 2.8 | ≧5 ng/ml | ≧5 ng/ml | – | – | IC50 (P. falciparum (W2); P. falciparum (W2) in vitro, Experiment 1, approximated, read-out: Inhibiting concentration (IC) 50%, Experiment 1): 1.24 ng/mL (≈ 3.28 nM); IC50 (P. falciparum (W2); P. falciparum (W2) in vitro, Experiment 2, approximated, read-out: Inhibiting concentration (IC) 50%, Experiment 2): 3.4 ng/mL (≈ 8.99 nM)
C[C@H]1[C@H](OC(=O)CCC(=O)O)O[C@@H]2O[C@@]3(C)CC[C@H]4[C@H](C)CC[C@@H]1[C@@]24OO3 [B, artesunate] | 0 | 0 | 0 | 0 | 1 | 2 | 3 | (100%) | (100%) | 100 | showed recrudescency of the parasitaemia | 0.37 | 0.99 | 1.54 ng/mL | 0.33 | 1.3 ng/mL | ≧5 ng/ml | 0.46 (≈ 1.2 nM) | 0.43 (≈ 1.12 nM) | Mortality during follow-up of treatment (Plasmodium berghei; 12 mg/kg via oral, follow-up of about 30 days): mortality occurred; % parasitaemia, Average ± Sd, day 30 (Plasmodium berghei; 12 mg/kg, group average, day 30): 16.6 ± 20.4%; % parasitaemia, Average ± Sd, day 33 (Plasmodium berghei; 12 mg/kg, group average, day 33): 23.3 ± 24.3%; % parasitaemia, Average ± Sd, day 36 (Plasmodium berghei; 12 mg/kg, group average, day 36): 33.5 ± 27.4%; % parasitaemia, Average ± Sd, day 48 (Plasmodium berghei; 12 mg/kg, group average, day 48): 30 ± 21.2%; % Individual parasitaemia on day 30 (recrudescence) (Plasmodium berghei; 12 mg/kg, individual animals infected by P. berghei, day 30, † = Animal death): 0.6% and 24% and 0% and 42%; % Individual parasitaemia on day 33 (recrudescence) (Plasmodium berghei; 12 mg/kg, individual animals infected by P. berghei, day 33, † = Animal death): 5% and 40% and 0% and 48%; % Individual parasitaemia on day 36 (recrudescence) (Plasmodium berghei; 12 mg/kg, individual animals infected by P. berghei, day 36, † = Animal death): 14% and 53% and 0%; % Individual parasitaemia on day 48 (recrudescence) (Plasmodium berghei; 12 mg/kg, individual animals infected by P. berghei, day 48, † = Animal death): 30% and 0%
CCN(CC)CCCC(C)Nc1ccnc2cc(Cl)ccc12 (stereo not drawn) [QC, chloroquine] | – | – | – | – | – | – | – | – | – | – | – | 41.1 | 82.3 | 277.7 ng/mL | 48.2 | 133.4 ng/mL | ≧200 ng/ml | 51.3 (≈ 160 nM) | 55.5 (≈ 174 nM) | –
CC1CCC2C(C)C(OC(=O)CCC(=O)O)OC3OC4(C)CCC1C32OO4.OC(c1cc(C(F)(F)F)nc2c(C(F)(F)F)cccc12)C1CCCCN1 (stereo not drawn) [A, salt of artesunate and mefloquine] | 0 | 0 | 0 | 0 | 0 | 0 | 0 | (100%) | (100%) | 100 | remained negative | 0.83 | 1.85 | 4.07 ng/mL | 0.46 | 1.5 ng/mL | ≧5 ng/ml | – | – | Cure of malaria in treated animals (Plasmodium berghei; 12 mg/kg via oral for 4 days): the cure of malaria was observed; Inhibiting concentration (IC) 50%, Experiment 1 (P. falciparum (W2); [2]): 1.03 ng/mL; Inhibiting concentration (IC) 50%, Experiment 2 (P. falciparum (W2); [3]): 0.8 ng/mL
